Common to all, as to assay: microbe, parasite or virus in culture
Assay [1] concerns M. tuberculosis Orphan strain. The assay is classed as cell-based. Particulars: Mycobacterium tuberculosis.
For another assay, the system named is M. tuberculosis Haarlem. In kind it is cell-based. Conditions: Mycobacterium tuberculosis.
Assay [2] has as its system M. tuberculosis LAM9 SIT 42. The assay is classed as cell-based, Mycobacterium tuberculosis.
Another assay relates to M. tuberculosis Beijing. The assay is classed as cell-based. Particulars: Mycobacterium tuberculosis.
The test system of assay [3] is M. tuberculosis ATCC 35822. In kind it is cell-based. Particulars: Mycobacterium tuberculosis, ATCC35822.
Assay [4] deals with M. tuberculosis ATCC 35838. In kind it is cell-based, Mycobacterium tuberculosis.
Setting [5] is: Mycobacterium tuberculosis, LAM9SIT42, c. M. tuberculosis LAM9 SIT 42.
[6] abbreviates: Mycobacterium tuberculosis, ATCC35838, f. M. tuberculosis ATCC 35838 (rifampicin-resistant).
[7] abbreviates: f. M. tuberculosis ATCC 35838 (rifampicin-resistant).

Structures are written as SMILES. Values after ≈ are worked out from the molar mass of the structure shown. Marks after values point to notes of the source that are not given here.

In the case of `COc1cc(OC)c(S(N)(=O)=O)cc1C(=O)C=Cc1ccccc1` [Compound 17a, 5-Cinnamoyl-2,4-dimethoxybenzenesulfonamide], the MIC in assay [1] was 29 µM (≈ 10.1 µg/mL); in the assay with M. tuberculosis Haarlem, more than 29 µM; in assay [2] (setting [5]), more than 29 µM; in the assay with M. tuberculosis Beijing, 29 µM (≈ 10.1 µg/mL); in assay [3], more than 29 µM; in assay [4] (setting [6]), 29 µM (≈ 10.1 µg/mL).
Turning to `COc1cc(OC)c(S(N)(=O)=O)cc1C(=O)/C=C/c1ccc2c(c1)OCO2` [Compound 17f, (E)-5-(3-(Benzo[d][1,3]dioxol-5-yl)acryloyl)-2,4-dimethoxybenzenesulfonamide], the MIC in assay [1] was more than 2 µM; in the assay with M. tuberculosis Haarlem, more than 2 µM; in assay [2] (setting [5]), more than 2 µM; in the assay with M. tuberculosis Beijing, more than 2 µM; in assay [3], more than 25 µM; in assay [4] (setting [6]), more than 25 µM.
On to `COc1ccc(C(=O)C=Cc2ccccc2)cc1S(=O)(=O)NNC(=O)c1ccncc1` [Compound 19a, 5-Cinnamoyl-N’-isonicotinoyl-2-methoxybenzenesulfonohydrazide], for which the MIC was more than 23 µM in assay [1]; more than 23 µM against M. tuberculosis Haarlem; 23 µM (≈ 10.1 µg/mL) in assay [2] (setting [5]); 23 µM (≈ 10.1 µg/mL) against M. tuberculosis Beijing; more than 23 µM in assay [3]; less than 12 µM in assay [4] (setting [6]). In assay [4] (setting [7]), this compound returned an MIC of less than 11 µM.
For the compound `COc1ccc(/C=C/C(=O)c2ccc(OC)c(S(=O)(=O)NNC(=O)c3ccncc3)c2)cc1` [Compound 19d, (E)-N’-Isonicotinoyl-2-methoxy-5-(3-(4-methoxyphenyl)acryloyl)benzenesulfonohydrazide], the MIC in assay [1] was 21 µM (≈ 9.82 µg/mL); against M. tuberculosis Haarlem, more than 21 µM; in assay [2] (setting [5]), 21 µM (≈ 9.82 µg/mL); in the assay with M. tuberculosis Beijing, 21 µM (≈ 9.82 µg/mL); in assay [3], more than 21 µM; in assay [4] (setting [6]), 21 µM (≈ 9.82 µg/mL).
With `COc1cc(OC)c(S(=O)(=O)NNC(=O)c2ccncc2)cc1C(=O)C=Cc1ccccc1` [Compound 20a, 5-Cinnamoyl-N’-isonicotinoyl-2,4-dimethoxybenzenesulfonohydrazide], the MIC in assay [1] was more than 21 µM; in the assay on M. tuberculosis Haarlem, more than 21 µM; in assay [2] (setting [5]), 21 µM (≈ 9.82 µg/mL); with M. tuberculosis Beijing, less than 11 µM; in assay [3], more than 21 µM; in assay [4] (setting [6]), less than 12 µM. Also, in assay [4] (setting [7]), the MIC is <11 * µM.
Turning to `COc1ccc(/C=C/C(=O)c2cc(S(=O)(=O)NNC(=O)c3ccncc3)c(OC)cc2OC)cc1` [Compound 20d, (E)-N’-Isonicotinoyl-2,4-dimethoxy-5-(3-(4-methoxyphenyl)acryloyl)benzenesulfonohydrazide], the MIC is more than 20 µM in assay [1]; more than 20 µM in the assay with M. tuberculosis Haarlem; more than 20 µM in assay [2] (setting [5]); more than 20 µM against M. tuberculosis Beijing; more than 20 µM in assay [3]; 20 µM (≈ 9.95 µg/mL) in assay [4] (setting [6]).
Consider `COc1cc(OC)c(S(=O)(=O)NNC(=O)c2ccncc2)cc1C(=O)/C=C/c1cc(OC)c(OC)c(OC)c1` [Compound 20e, (E)-N’-Isonicotinoyl-2,4-dimethoxy-5-(3-(3,4,5-trimethoxyphenyl)acryloyl)benzenesulfonohydrazide], for which the MIC in assay [1] was more than 18 µM; in the assay on M. tuberculosis Haarlem, more than 18 µM; in assay [2] (setting [5]) it was 8.97 µM (≈ 5 µg/mL); in assay [2] (c. M. tuberculosis LAM9 SIT 42), <9.0 * µM; with M. tuberculosis Beijing, less than 9 µM; in assay [3] it was more than 18 µM. Also, the MIC in assay [4] (setting [6]) is less than 12 µM; in assay [4] (setting [7]), <9.0 * µM.
`COc1cc(OC)c(S(=O)(=O)NNC(=O)c2ccncc2)cc1C(=O)/C=C/c1ccc2c(c1)OCO2` [Compound 20f, (E)-5-(3-(Benzo[d][1,3]dioxol-5-yl)acryloyl)-N’-isonicotinoyl-2,4-dimethoxybenzenesulfonohydrazide]: the MIC is more than 20 µM in assay [1]; more than 20 µM against M. tuberculosis Haarlem; 9.77 µM (≈ 5 µg/mL) in assay [2] (setting [5]); less than 10 µM in assay [2] (c. M. tuberculosis LAM9 SIT 42); 20 µM (≈ 10.2 µg/mL) against M. tuberculosis Beijing; more than 20 µM in assay [3]. The MIC in assay [4] (setting [6]) was less than 12 µM; in assay [4] (setting [7]), <10 * µM.
Turning to `C[C@H]1COc2c(N3CCN(C)CC3)c(F)cc3c(=O)c(C(=O)O)cn1c23` [Levofloxacin, levofloxacin, reference compound], the MIC (in assay [1]; against M. tuberculosis Haarlem; in assay [2] (setting [5]); in the assay on M. tuberculosis Beijing; in assay [3]; in assay [4] (setting [6])) was 2.8 µM (≈ 1.01 µg/mL) throughout.

The values are drawn from publication PMC9604400, “Synthesis, Anticancer and Antitubercular Properties of New Chalcones and Their Nitrogen-Containing Five-Membered Heterocyclic Hybrids Bearing Sulfonamide Moiety” (International Journal of Molecular Sciences, 2022).
